# Reference: EP0467365A2, “Use of a 5-hydroxytryptamine-3(5-HT3) receptor antagonist for the preparation of a pharmaceutical composition for treating urinary incontinence” (E.R. SQUIBB & SONS, INC., priority 1990, dated 1992)
# Entries after “also recorded” stand apart in the source; their conditions may differ. Structures can show the parent of a compound that is named as a salt. Where two headings read alike, the source gives them in different places.
# How the values were obtained:
# Type in all cases: cell-based
# rabbit bladder strips = test: 5-HT-induced contraction of rabbit bladder (detrusor) strips, organ bath tension recording; conditions: for atropine and α,β-methylene ATP-resistant component of 5-HT-induced contraction: bladder strips, in presence of atropine and α,β-methylene ATP; for effect on the contractile response to 5-HT: ketanserine 10^-7 to 10^-6M, methysergide and metitepine 10^-8 to 10^-7M, anterior detrusor of female rabbits; for inhibition of the 5-HT contractions: atropine 10^-7M, α,β-methylene ATP 10^-6M; for antagonism of the 5-HT-induced contraction / pA2: 30 minutes exposure; for antagonism of the 5-HT-induced contraction: BRL 43694 5 x 10^-11 to 2 x 10^-10M, ICS 205930 5 x 10^-12 to 1 x 10^-10M, MDL 72222 5 x 10^-10 to 5 x 10^-9M; for pA2: antagonism of 5-HT-induced contraction, rabbit detrusor strips, Schild plot, mean ± s.e.mean
# urethra = test: 5-HT-induced contraction of rabbit urethra strips, organ bath tension recording; conditions: 30-second application, 10^-6 to 10^-3M
# rabbit bladder = test: Contractile response of rabbit bladder strips to electrical field stimulation of intrinsic nerves; conditions: for effect on the response to field stimulation: α,β-methylene ATP dose-dependent, all frequencies
compound,measurement,setting,value
"NCCc1c[nH]c2ccc(O)cc12 [5-HT, 5-Hydroxytryptamine creatinine sulphate complex]",contraction in the rabbit bladder,"rabbit bladder strips; 30-second application, 10^-8 to 10^-3M",dose-dependent contraction
same,contraction in the urethra,urethra,dose-dependent contraction
Ketanserine tartrate,"atropine and α,β-methylene ATP-resistant component of 5-HT-induced contraction",rabbit bladder strips,not abolished
same,effect on the contractile response to 5-HT,rabbit bladder strips,no effect
same,effect on the contractile response to 5-HT,rabbit bladder strips; listed as ketanserine,no significant effect
"C[N+](C)(C)CCCCCC[N+](C)(C)C [hexamethonium, Hexamethonium bromide]",effect on the 5-HT-induced contraction of the rabbit bladder,rabbit bladder strips,did not affect; also recorded: not blocked
"Cc1ccc(N(CC2=NCCN2)c2cccc(O)c2)cc1 [phentolamine, Phentolamine mesylate]",effect on the 5-HT-induced contraction of the rabbit bladder,rabbit bladder strips,did not affect; also recorded: not blocked
"CN1[C@@H]2CC[C@H]1CC(OC(=O)C(CO)c1ccccc1)C2.CN1[C@@H]2CC[C@H]1CC(OC(=O)C(CO)c1ccccc1)C2.O=S(=O)(O)O (stereo partly drawn) [Atropine, Atropine sulphate]",inhibition of the 5-HT contractions,rabbit bladder strips,partially inhibited
same,inhibition of the response to field stimulation (maximum),"rabbit bladder; 20 minute pretreatment, 10^-8 to 10^-6M, maximum at high frequencies",40%
same,control response to field stimulation still persisting,"rabbit bladder; atropine 10^-8 to 10^-6M, 5-50 Hz, posterior detrusor of male rabbits",approximately 60%
same,effect on the response to field stimulation,rabbit bladder; atropine 10^-8 to 10^-6M,only partially inhibited
"CN1[C@@H]2CC[C@H]1C[C@@H](OC(=O)c1c[nH]c3ccccc13)C2 [ICS 205930, 3a-tropanyl-1 H-indole-3-carboxylic acid ester]",antagonism of the 5-HT-induced contraction,rabbit bladder strips,strongly and competitively antagonized; also recorded: effective at blocking
same,antagonism of the 5-HT-induced contraction,rabbit bladder strips; listed as ICS 205-930,most potent antagonistic effect
same,pA2,rabbit bladder strips,12.5 ± 0.36
same,"atropine and α,β-methylene ATP-resistant component of 5-HT-induced contraction",rabbit bladder strips,not abolished
"CN1C2CCCC1CC(NC(=O)c1nn(C)c3ccccc13)C2 (stereo not drawn) [BRL 43694, [endo]N-(9-methyl-9-azabicyclo-[3,3,1]-non-3-yl)-1-methyl-1H-indazole-3-carboxamide hydrochloride]",antagonism of the 5-HT-induced contraction,rabbit bladder strips; hydrochloride,strongly and competitively antagonized; also recorded: dose-dependent inhibition
same,antagonism of the 5-HT-induced contraction,"rabbit bladder strips; listed as BRL 43695, hydrochloride",effective at blocking
same,pA2,rabbit bladder strips,10.5 ± 0.01
same,"atropine and α,β-methylene ATP-resistant component of 5-HT-induced contraction",rabbit bladder strips,not abolished
"NC1=N[C@H](O)[C@H]2[C@H]3O[C@]4(O)O[C@@H]([C@@H](O)[C@@]2(N1)[C@@H]4O)[C@]3(O)CO [TTX, Tetrodotoxin]",effect on the 5-HT-induced contraction of the rabbit bladder,rabbit bladder strips,did not affect; also recorded: no effect
same,abolition of the responses to field stimulation,rabbit bladder,complete; also recorded: completely blocks
"COc1cc2nc(N3CCN(C(=O)c4ccco4)CC3)nc(N)c2cc1OC [prazosin, Prazosin hydrochloride]",effect on the 5-HT-induced contraction of the rabbit bladder,rabbit bladder strips; hydrochloride,did not affect; also recorded: not blocked
"Nc1ncnc2c1ncn2C1OC(COP(=O)(O)CP(=O)(O)OP(=O)(O)O)C(O)C1O (stereo not drawn) [α,β-methylene ATP, α,β-Methyleneadenosine 5'-Triphosphate]",inhibition of the 5-HT contractions,rabbit bladder strips,partially inhibited
same,inhibition of the response to field stimulation,rabbit bladder; 10^-6M,about 35%
same,effect on the response to field stimulation,rabbit bladder; atropine 10^-8 to 10^-6M,dose-dependent inhibition
"CC[C@@H](CO)NC(=O)[C@@H]1C=C2c3cccc4c3c(cn4C)C[C@H]2N(C)C1 [methysergide, Methysergide bimaleate]","atropine and α,β-methylene ATP-resistant component of 5-HT-induced contraction",rabbit bladder strips,not abolished
same,effect on the contractile response to 5-HT,rabbit bladder strips,no significant effect
"CN1[C@@H]2CC[C@H]1C[C@@H](OC(=O)c1cc(Cl)cc(Cl)c1)C2 [MDL 72222, laH,3a,5aH-tropan-3-yl-3,5-dichlorobenzoate]",antagonism of the 5-HT-induced contraction,rabbit bladder strips,strongly and competitively antagonized; also recorded: dose-dependent inhibition; also recorded: effective at blocking
same,pA2,rabbit bladder strips,9.3 ± 0.04
same,"atropine and α,β-methylene ATP-resistant component of 5-HT-induced contraction",rabbit bladder strips,not abolished
same,effect on the contraction to field stimulation,rabbit bladder; 10^-7M,no effect
Metitepine monomethanesulfonate,"atropine and α,β-methylene ATP-resistant component of 5-HT-induced contraction",rabbit bladder strips,not abolished
same,effect on the contractile response to 5-HT,rabbit bladder strips,no significant effect
